Test system: Plasmodium berghei
Assay: Evaluation of anti-malarial effects (murine malaria 4 day inhibition method, infected Kunming mice)
Format: in vivo
Conditions: intraperitoneal injection, dose equivalent to 10 mg/kg artesunate, 4 administrations, D4, mean (range)
Procedure: Preparation of animals and pathological models: Kunming mice were purchased from the Animal Center of the Military Medical Science Academy of the PLA, body weight 20±2 g, female, conventionally raised, free diet. The mice were inoculated 1×10^7 plasmodia via intraperitoneal injection on the test day (DO) to infect red blood cells to establish murine malaria infection models.
Dosage regimen: the solutions of artesunate and PEGlyation derivatives thereof were diluted with injection water to a concentration equivalent to 1 mg/ml artesunate, and each mouse was administrated by 0.2 ml intraperitoneal injection (a dose equivalent to 10 mg/kg artesunate). First administration was performed 3 hours after the mice were infected, then administrated once per 24 hours, until the 3rd day (D3) after infection, that was, totally administrated for 4 times. The placebo control group was injected with physiological saline of same volume.
On the 4th day (D4) after administration of 10 mg/kg body weight artesunate and its PEGlyation derivatives, their inhibition rates to Plasmodium berghei were all 80% or more, and there was no significant difference of inhibition rate between the derivatives and artesunate (Table 1).

Molecule | inhibition rates to Plasmodium berghei, Mean (column group headed Parasitemia (%))
Artesunate-NH-PEG20k-NH-Artesunate [Compound 4] | 80.8(79.7-87.0) %
mPEG20k-Lys2-(Artesunate)4 [Compound 3] | 92.1(87.8-95.1) %
mPEG20k-Lys-(Artesunate)2 [Compound 2] | 87.0(79.3-97.4) %
C[C@H]1[C@H](OC(=O)CCC(=O)O)O[C@@H]2O[C@@]3(C)CC[C@H]4[C@H](C)CC[C@@H]1[C@@]24OO3 [Artesunate] | 84.0(76.0-94.6) %
[(Artesunate-)2-Lys-]2-PEG20k [Compound 1] | 87.2(82.7-92.7) %

Test system: not listed separately
Assay: Determination of drug-time curve in vivo (serum dihydroartemisinin by LC-MS after intravenous injection)
Conditions: SD rats, single intravenous (caudal vein) injection, dose equivalent to 10 mg/kg artesunate
Procedure: Samples: Artesunate, Compounds 1-4.
Preparation of samples: artesunate was dissolved with 5% NaHCO3 physiological saline to obtain 10 mg/ml colorless pellucid solution; Compound 1 was dissolved with injection physiological saline to prepare a colorless pellucid solution containing equivalently 10 mg/ml artesunate.
Animals: SD rats were purchased from the Animal Center of the Military Medical Science Academy of the PLA, body weight 200±10 g, male, conventionally raised, free diet.
Experimental method: solutions of artesunate and Compound 1 samples were administrated to each rat by intravenous injection in an amount of 0.2 ml (a dose equivalent to 10 mg/kg artesunate). Blood samples were collected at 0 min, 10 min, 20 min, 30 min, 45 min, 1 hr, 1.5 hr, 2 hr, 2.5 hr, 3 hr, 4 hr, 6 hr, 8 hr, 10 hr, respectively, and serum concentration of dihydroartemisinin were measured by LC-MS method.
Experimental Results: See FIG. 1.

Molecule | half-life extended in comparison with artesunate
[(Artesunate-)2-Lys-]2-PEG20k [Compound 1] | about 5 times

— patent US9623111B2, “Pegylated artesunate derivative, pharmaceutical composition and use thereof” (Institute of Pharmacology and Toxicology Academy of …, priority 2012, dated 2017)
